The subject of the assay is MV-4-11 cells. Put plainly: Gene expression microarray analysis (Affymetrix PrimeView) and GSEA. The class given is cell-based, human. Further details: RFU PODN (11730768_x_at) / Fold change /veh PODN (11730768_x_at) / RFU LINC00158 (11744669_a_at) / Fold change /veh LINC00158 (11744669_a_at) / RFU DUSP10 (11751237_a_at) / Fold change /veh DUSP10 (11751237_a_at) / RFU ID3 (11757404_x_at) / Fold change /veh ID3 (11757404_x_at) / RFU PLEKHG5 (11737974_s_at) / Fold change /veh PLEKHG5 (11737974_s_at) / RFU LRRC4B (11730491_at) / Fold change /veh LRRC4B (11730491_at) / RFU GIMAP4 (11747438_a_at) / Fold change /veh GIMAP4 (11747438_a_at) / RFU KRT8 (11758183_x_at) / Fold change /veh KRT8 (11758183_x_at) / RFU CNN1 (11734310_a_at) / Fold change /veh CNN1 (11734310_a_at) / RFU VPS37D (11726825_at) / Fold change /veh VPS37D (11726825_at) / RFU C10orf10 (11716522_x_at) / Fold change /veh C10orf10 (11716522_x_at) / RFU KIR2DL2 /// KIR2DL4 /// KIR2DL5A /// KIR2DL5B /// KIR2DS1 /// KIR2DS2 /// KIR2DS3 /// KIR2DS4 /// KIR3DL3 /// KIR3DL3 /// KIR3DS1 (11738374_at) / Fold change /veh KIR2DL2 /// KIR2DL4 /// KIR2DL5A /// KIR2DL5B /// KIR2DS1 /// KIR2DS2 /// KIR2DS3 /// KIR2DS4 /// KIR3DL3 /// KIR3DL3 /// KIR3DS1 (11738374_at) / RFU C1QL1 (11718748_at) / Fold change /veh C1QL1 (11718748_at) / RFU TMPRSS4 (11747572_a_at) / Fold change /veh TMPRSS4 (11747572_a_at) / RFU HAMP (11756126_x_at) / Fold change /veh HAMP (11756126_x_at) / RFU RNFT2 (11725882_a_at) / Fold change /veh RNFT2 (11725882_a_at) / RFU NR4A2 (11747474_a_at) / Fold change /veh NR4A2 (11747474_a_at) / RFU ABCC12 (11746883_a_at) / Fold change /veh ABCC12 (11746883_a_at) / RFU TMEM136 (11760407_x_at) / Fold change /veh TMEM136 (11760407_x_at) / RFU CLDN22 /// WWC2 (11732394_at) / Fold change /veh CLDN22 /// WWC2 (11732394_at) / RFU HLA-DPB1 (11760878_x_at) / Fold change /veh HLA-DPB1 (11760878_x_at) / RFU SPINT1 (11716480_a_at) / Fold change /veh SPINT1 (11716480_a_at) / RFU GAP43 (11754022_s_at) / Fold change /veh GAP43 (11754022_s_at) / RFU A4GNT (11735810_at) / Fold change /veh A4GNT (11735810_at) / RFU PRB3 (11715151_x_at) / Fold change /veh PRB3 (11715151_x_at) / RFU TUBB4B (11761932_at) / Fold change /veh TUBB4B (11761932_at) / RFU CAPN14 (11732068_a_at) / Fold change /veh CAPN14 (11732068_a_at) / RFU TMCC2 (11721928_a_at) / Fold change /veh TMCC2 (11721928_a_at) / RFU IRGQ (11745062_a_at) / Fold change /veh IRGQ (11745062_a_at) / RFU FAM174B (11720279_a_at) / Fold change /veh FAM174B (11720279_a_at) / RFU TMPRSS4 (11748680_a_at) / Fold change /veh TMPRSS4 (11748680_a_at) / RFU FAM212B (11763350_a_at) / Fold change /veh FAM212B (11763350_a_at) / RFU PLEKHG5 (11743358_a_at) / Fold change /veh PLEKHG5 (11743358_a_at) / RFU ZSCAN30 (11745921_a_at) / Fold change /veh ZSCAN30 (11745921_a_at) / RFU CMKLR1 (11741424_a_at) / Fold change /veh CMKLR1 (11741424_a_at) / RFU LOC101060620 /// MAPK8IP1 (11723275_at) / Fold change /veh LOC101060620 /// MAPK8IP1 (11723275_at) / RFU SPTSSB (11747773_x_at) / Fold change /veh SPTSSB (11747773_x_at) / RFU PRSS12 (11739890_at) / Fold change /veh PRSS12 (11739890_at) / RFU BIN1 (11741810_x_at) / Fold change /veh BIN1 (11741810_x_at) / RFU WNT11 (11732464_a_at) / Fold change /veh WNT11 (11732464_a_at) / RFU C10orf10 (11716521_a_at) / Fold change /veh C10orf10 (11716521_a_at) / RFU C5orf56 (11738089_at) / Fold change /veh C5orf56 (11738089_at) / RFU CYB561 (11721691_x_at) / Fold change /veh CYB561 (11721691_x_at) / RFU ANKRD19P (11752326_a_at) / Fold change /veh ANKRD19P (11752326_a_at) / RFU OR2T12 /// OR2T33 /// OR2T8 (11738714_s_at) / Fold change /veh OR2T12 /// OR2T33 /// OR2T8 (11738714_s_at) / RFU VCAN (11748164_a_at) / Fold change /veh VCAN (11748164_a_at) / RFU JSRP1 (11732532_at) / Fold change /veh JSRP1 (11732532_at) / RFU KRTAP10-11 (11738290_x_at) / Fold change /veh KRTAP10-11 (11738290_x_at) / RFU MYO3A (11730013_a_at) / Fold change /veh MYO3A (11730013_a_at) / RFU EBF3 (11725865_a_at) / Fold change /veh EBF3 (11725865_a_at) / RFU CAMK2N1 (11719241_x_at) / Fold change /veh CAMK2N1 (11719241_x_at) / RFU C5orf56 (11738088_a_at) / Fold change /veh C5orf56 (11738088_a_at) / RFU OLFML3 (11715873_a_at) / Fold change /veh OLFML3 (11715873_a_at) / RFU LOC100653217 /// NTM (11731650_a_at) / Fold change /veh LOC100653217 /// NTM (11731650_a_at) / RFU MAPK11 (11762145_a_at) / Fold change /veh MAPK11 (11762145_a_at) / RFU FIZ1 (11724087_x_at) / Fold change /veh FIZ1 (11724087_x_at) / RFU OASL (11726364_x_at) / Fold change /veh OASL (11726364_x_at) / RFU SOX15 (11748057_x_at) / Fold change /veh SOX15 (11748057_x_at) / RFU CD79A (11719716_a_at) / Fold change /veh CD79A (11719716_a_at) / RFU HIST1H1D (11736915_at) / Fold change /veh HIST1H1D (11736915_at) / RFU CASKIN2 (11723855_a_at) / Fold change /veh CASKIN2 (11723855_a_at) / RFU LOC730098 (11760151_x_at) / Fold change /veh LOC730098 (11760151_x_at) / RFU OR4N2 (11742367_at) / Fold change /veh OR4N2 (11742367_at) / RFU PRRT2 (11749266_a_at) / Fold change /veh PRRT2 (11749266_a_at) / RFU SNX32 (11753110_a_at) / Fold change /veh SNX32 (11753110_a_at) / RFU CDHR5 (11726645_a_at) / Fold change /veh CDHR5 (11726645_a_at) / RFU RCAN1 (11760418_a_at) / Fold change /veh RCAN1 (11760418_a_at) / RFU FAM167A (11723789_a_at) / Fold change /veh FAM167A (11723789_a_at) / RFU FAM26E (11764081_at) / Fold change /veh FAM26E (11764081_at) / RFU ISYNA1 (11749810_s_at) / Fold change /veh ISYNA1 (11749810_s_at) / RFU ACY1 (11761880_at) / Fold change /veh ACY1 (11761880_at) / RFU 11764098_at / Fold change /veh 11764098_at / RFU SAMD14 (11745864_x_at) / Fold change /veh SAMD14 (11745864_x_at) / RFU NPB (11741838_a_at) / Fold change /veh NPB (11741838_a_at) / RFU TMPRSS6 (11731388_a_at) / Fold change /veh TMPRSS6 (11731388_a_at) / RFU KRTAP10-2 (11738614_at) / Fold change /veh KRTAP10-2 (11738614_at) / RFU ARHGAP8 /// PRR5-ARHGAP8 (11727945_x_at) / Fold change /veh ARHGAP8 /// PRR5-ARHGAP8 (11727945_x_at) / RFU KRTAP5-7 /// NADSYN1 (11734609_at) / Fold change /veh KRTAP5-7 /// NADSYN1 (11734609_at) / RFU RASL12 (11751679_a_at) / Fold change /veh RASL12 (11751679_a_at) / RFU CDKN2B (11736163_a_at) / Fold change /veh CDKN2B (11736163_a_at) / RFU PRF1 (11729649_at) / Fold change /veh PRF1 (11729649_at) / RFU, ZNF638 /// ZNF638-IT1 / Fold change vs veh, ZNF638 /// ZNF638-IT1 / RFU, PANK3 / Fold change vs veh, PANK3 / RFU, SH3YL1 / Fold change vs veh, SH3YL1 / RFU, ZEB2 / Fold change vs veh, ZEB2 / RFU, NRIP1 / Fold change vs veh, NRIP1 / RFU, PTTG1IP / Fold change vs veh, PTTG1IP / RFU, CAPN2 / Fold change vs veh, CAPN2 / RFU, MED14 / Fold change vs veh, MED14 / RFU, SNORA58 / Fold change vs veh, SNORA58 / RFU, C1orf63 / Fold change vs veh, C1orf63 / RFU, LRRFIP1 / Fold change vs veh, LRRFIP1 / RFU, NDUFAF7 / Fold change vs veh, NDUFAF7 / RFU, SLC12A2 / Fold change vs veh, SLC12A2 / RFU, IBTK / Fold change vs veh, IBTK / RFU, ESF1 / Fold change vs veh, ESF1 / Fold change vs veh, TMEM50B / RFU, TAOK1 / Fold change vs veh, TAOK1 / RFU, ACBD3 / Fold change vs veh, ACBD3 / RFU, TMA16 / Fold change vs veh, TMA16 / RFU, RWDD3 / Fold change vs veh, RWDD3 / RFU, BCAT1 / Fold change vs veh, BCAT1 / RFU, EDEM3 / Fold change vs veh, EDEM3 / RFU, TMEM33 / Fold change vs veh, TMEM33 / RFU, WDR75 / Fold change vs veh, WDR75 / RFU, AHCTF1 / Fold change vs veh, AHCTF1 / RFU, TFRC / Fold change vs veh, TFRC / RFU, ZDHHC17 / Fold change vs veh, ZDHHC17 / RFU, NOM1 / Fold change vs veh, NOM1 / RFU, ARL8B / Fold change vs veh, ARL8B / RFU, ZBTB11 / Fold change vs veh, ZBTB11 / RFU, TAMM41 / Fold change vs veh, TAMM41 / RFU, KIAA1704 /// LOC100996395 / Fold change vs veh, KIAA1704 /// LOC100996395 / RFU, ING1 / Fold change vs veh, ING1 / RFU, TRMT61B / Fold change vs veh, TRMT61B / RFU, FUBP3 / Fold change vs veh, FUBP3 / RFU, TP53 / Fold change vs veh, TP53 / RFU, TNKS2 / Fold change vs veh, TNKS2 / RFU, ZFP14 / Fold change vs veh, ZFP14 / RFU, ACTR2 / Fold change vs veh, ACTR2 / RFU, PPP3R1 / Fold change vs veh, PPP3R1 / RFU, PIK3R1 / Fold change vs veh, PIK3R1 / RFU, HNRNPA1 / Fold change vs veh, HNRNPA1 / RFU, RNF170 / Fold change vs veh, RNF170 / RFU, ZNF28 / Fold change vs veh, ZNF28 / RFU, RNGTT / Fold change vs veh, RNGTT / RFU, OGT / Fold change vs veh, OGT / RFU, BRD1 / Fold change vs veh, BRD1 / RFU, MARS / Fold change vs veh, MARS / RFU, ZNF655 / Fold change vs veh, ZNF655 / RFU, FAHD1 / Fold change vs veh, FAHD1 / RFU, BDP1 / Fold change vs veh, BDP1 / RFU, LRRCC1 / Fold change vs veh, LRRCC1 / RFU, ARID1A / Fold change vs veh, ARID1A / RFU, ZNF146 / Fold change vs veh, ZNF146 / RFU, ZNF330 / Fold change vs veh, ZNF330 / RFU, GPN3 / Fold change vs veh, GPN3 / RFU, C9orf123 / Fold change vs veh, C9orf123 / RFU, N4BP2L2 / Fold change vs veh, N4BP2L2 / RFU, ARFIP1 / Fold change vs veh, ARFIP1 / RFU, FAM179B / Fold change vs veh, FAM179B / RFU, BCL10 / Fold change vs veh, BCL10 / RFU, UHRF1BP1L / Fold change vs veh, UHRF1BP1L / RFU, BET1 / Fold change vs veh, BET1 / RFU, CNOT2 / Fold change vs veh, CNOT2 / RFU, ZNF268 / Fold change vs veh, ZNF268 / Fold change vs veh, ZNF507 / RFU, DGCR2 / Fold change vs veh, DGCR2 / RFU, WDSUB1 / Fold change vs veh, WDSUB1 / Fold change vs veh, HSP90B1 /// MIR3652 / RFU, ADSS / Fold change vs veh, ADSS / RFU, GK / Fold change vs veh, GK / RFU, ZNF148 / Fold change vs veh, ZNF148 / RFU, TAF9 / Fold change vs veh, TAF9 / RFU, SLC1A5 / Fold change vs veh, SLC1A5 / RFU, SLMO2 / Fold change vs veh, SLMO2 / RFU, ABCC4 / Fold change vs veh, ABCC4 / RFU, LOC101060439 /// RAP1B / Fold change vs veh, LOC101060439 /// RAP1B / RFU, RFX7 / Fold change vs veh, RFX7 / RFU, GTPBP10 / Fold change vs veh, GTPBP10 / RFU, CNEP1R1 / Fold change vs veh, CNEP1R1 / RFU, BIVM-ERCC5 /// ERCC5 / Fold change vs veh, BIVM-ERCC5 /// ERCC5 / RFU, ILF3 / Fold change vs veh, ILF3 / RFU 11762660_at / Fold change /veh 11762660_at / RFU VCAN (11757783_s_at) / Fold change /veh VCAN (11757783_s_at) / RFU DDX43 (11728927_at) / Fold change /veh DDX43 (11728927_at) / RFU KRT8 (11758188_x_at) / Fold change /veh KRT8 (11758188_x_at) / RFU NKD1 (11759106_at) / Fold change /veh NKD1 (11759106_at) / RFU SRD5A1 (11742802_a_at) / Fold change /veh SRD5A1 (11742802_a_at) / RFU TPSAB1 /// TPSB2 (11721975_s_at) / Fold change /veh TPSAB1 /// TPSB2 (11721975_s_at) / RFU GSTM3 (11746129_a_at) / Fold change /veh GSTM3 (11746129_a_at) / RFU IL23R (11737362_x_at) / Fold change /veh IL23R (11737362_x_at) / RFU TMEM51 (11727254_a_at) / Fold change /veh TMEM51 (11727254_a_at) / RFU PIWIL2 (11732686_x_at) / Fold change /veh PIWIL2 (11732686_x_at) / RFU ORM1 (11744905_x_at) / Fold change /veh ORM1 (11744905_x_at) / RFU CCDC152 (11743942_at) / Fold change /veh CCDC152 (11743942_at) / RFU ECM1 (11717891_a_at) / Fold change /veh ECM1 (11717891_a_at) / RFU IL23R (11748794_a_at) / Fold change /veh IL23R (11748794_a_at) / RFU TNFAIP8L3 (11732012_x_at) / Fold change /veh TNFAIP8L3 (11732012_x_at) / RFU MBOAT4 (11741988_at) / Fold change /veh MBOAT4 (11741988_at) / RFU 11764193_at / Fold change /veh 11764193_at / RFU TMEM53 (11763286_at) / Fold change /veh TMEM53 (11763286_at) / RFU MAGEB2 (11727129_at) / Fold change /veh MAGEB2 (11727129_at) / RFU TMEM200A (11744735_a_at) / Fold change /veh TMEM200A (11744735_a_at) / RFU CCDC152 (11751479_a_at) / Fold change /veh CCDC152 (11751479_a_at) / RFU FAM211A (11726209_a_at) / Fold change /veh FAM211A (11726209_a_at) / RFU RGS16 (11746705_a_at) / Fold change /veh RGS16 (11746705_a_at) / RFU VCAN (11755009_s_at) / Fold change /veh VCAN (11755009_s_at) / RFU RHOB (11743442_s_at) / Fold change /veh RHOB (11743442_s_at) / RFU RGS16 (11720943_a_at) / Fold change /veh RGS16 (11720943_a_at) / RFU RGS16 (11720944_at) / Fold change /veh RGS16 (11720944_at) / RFU, VPS4B / Fold change vs veh, VPS4B / RFU, CREB1 / Fold change vs veh, CREB1 / RFU, DNAJC13 / Fold change vs veh, DNAJC13 / RFU, GNAQ / Fold change vs veh, GNAQ / RFU, CDK5R1 / Fold change vs veh, CDK5R1 / RFU, ZRANB3 / Fold change vs veh, ZRANB3 / RFU, CUL4A / Fold change vs veh, CUL4A / RFU, CCNY / Fold change vs veh, CCNY / RFU, UFL1 / Fold change vs veh, UFL1 / RFU, COG3 / Fold change vs veh, COG3 / RFU, DIAPH2 / Fold change vs veh, DIAPH2 / RFU, SKA2 / Fold change vs veh, SKA2 / RFU, AFF3 / Fold change vs veh, AFF3 / RFU, LMF1 / Fold change vs veh, LMF1 / RFU, IPO11 / Fold change vs veh, IPO11 / RFU, DFFB / Fold change vs veh, DFFB / RFU, FOXP1 / Fold change vs veh, FOXP1 / RFU, CARD8 / Fold change vs veh, CARD8 / RFU, STRN3 / Fold change vs veh, STRN3 / RFU, ADK / Fold change vs veh, ADK / RFU, RASSF2 / Fold change vs veh, RASSF2 / RFU, WIPF1 / Fold change vs veh, WIPF1 / RFU, LARP1B / Fold change vs veh, LARP1B / RFU, RASA1 / Fold change vs veh, RASA1 / RFU, RB1 / Fold change vs veh, RB1 / RFU, PPFIA1 / Fold change vs veh, PPFIA1 / RFU, MAT2A / Fold change vs veh, MAT2A / RFU, CCT5 / Fold change vs veh, CCT5 / RFU, WDR92 / Fold change vs veh, WDR92 / RFU, CUX1 / Fold change vs veh, CUX1 / RFU, TTC7A / Fold change vs veh, TTC7A / RFU, TMEM135 / Fold change vs veh, TMEM135 / RFU, DEPTOR / Fold change vs veh, DEPTOR / RFU, CPM / Fold change vs veh, CPM / RFU, DNAJB6 / Fold change vs veh, DNAJB6 / RFU, CACNA2D3 / Fold change vs veh, CACNA2D3 / RFU, DTX4 / Fold change vs veh, DTX4 / RFU, TFCP2 / Fold change vs veh, TFCP2 / RFU, GMCL1 /// GMCL1P1 / Fold change vs veh, GMCL1 /// GMCL1P1 / RFU, AEBP2 / Fold change vs veh, AEBP2 / RFU, SNHG1 /// SNORD22 /// SNORD25 /// SNORD26 /// SNORD27 /// SNORD28 /// SNORD29 /// SNORD31 / Fold change vs veh, SNHG1 /// SNORD22 /// SNORD25 /// SNORD26 /// SNORD27 /// SNORD28 /// SNORD29 /// SNORD31 / Fold change (Aza/veh), C12orf56 (ProbeSet 11735607_a_at) / Fold change (ACY-1035/veh), C12orf56 (ProbeSet 11735607_a_at) / Fold change (Aza/veh), FGFR1OP (ProbeSet 11751329_s_at) / Fold change (ACY-1035/veh), FGFR1OP (ProbeSet 11751329_s_at) / Fold change (Aza/veh), VPS36 (ProbeSet 11739960_a_at) / Fold change (ACY-1035/veh), VPS36 (ProbeSet 11739960_a_at) / RFU SYPL1 (11715823_x_at) / Fold change /veh SYPL1 (11715823_x_at) / RFU IGFBP7 (11715501_s_at) / Fold change /veh IGFBP7 (11715501_s_at) / RFU REEP3 (11722064_at) / Fold change /veh REEP3 (11722064_at) / RFU IGLL1 (11728026_x_at) / Fold change /veh IGLL1 (11728026_x_at): dose or concentration left out as unconfirmed. The note with it: ProbeSet 11743929_at; LIST B.

Structures are written as SMILES.

In the case of `Nc1ccc(-c2cccs2)cc1NC(=O)c1ccc2c(c1)cc(C1CC1)n2CCN1CCOCC1` [ACY-1035], the “RFU, UHRF1BP1L” value amounted to 242.75 RFU.

Source of the values: article PMC5218480 (PLoS ONE, 2017).
